# Patent US8030341B2, “Dmt-derivative compounds and related compositions and methods of use” (priority 2005, dated 2011)
# Where a name gives a salt, the structure may show the parent alone. Read-outs that look alike come from different tables or passages of the source. Non-standard residues stand in square brackets, D forms with d. Residues, ends and D or L forms follow the SMILES beside them. Dmt = Cc1cc(O)cc(C)c1C[C@H](N)C(=O)O; Tic = O=C(O)[C@@H]1Cc2ccccc2CN1
# What was measured:
# [1] = target: T1, δ-opioid receptor (Rattus norvegicus, UniProt P33533); assay: opioid receptor binding competition assay, rat brain P2 synaptosomal membranes (δ)
# T1 construct: from tissue; host or cells: rat brain P2 synaptosomal membranes (Sprague-Dawley)
# Description: (§1) Synaptosomes were preincubated to remove endogenous opioids, washed in excess ice-cold buffer containing protease inhibitor and stored in a glycerol-containing buffer with protease inhibitor at −80° C. as described in Lazarus et al., J. Med. Chem. 34:1350-55 (1991). […] After incubation, the radiolabeled membranes were rapidly filtered on Whatman GF/C glass fiber filters presoaked in 0.1% polyethylenimine in order to optimize the signal-to-noise ratio, washed with ice-cold BSA buffer, and dried at 75-80° C. Radioactivity was determined using EcoLume (ICN, Costa Mesa, Calif.). All compounds were analyzed in duplicate using 5-8 peptide dosages and several synaptosomal preparations in independent repetitions to ensure statistical significance. The affinity constants (Ki) were calculated according to Cheng and Prusoff (Cheng et al., Biochem. Pharmacol., 22: 3099-3108 ([…])).
# [2] = target: T2, μ-opioid receptor (Rattus norvegicus, UniProt P33535); assay: opioid receptor binding competition assay, rat brain P2 synaptosomal membranes (μ); settings: for Ki(δ)/Ki(μ): selectivity ratio
# T2 construct: from tissue; host or cells: rat brain P2 synaptosomal membranes (Sprague-Dawley)
# Description: as §1
# [3] = target: T3, δ-opioid receptor (Mus musculus, UniProt P32300); assay: mouse vas deferens (MVD) bioassay; type: cell-based; settings: for MVD Antagonist pA2: versus deltorphin II as agonist
# T3 construct: from tissue; host or cells: isolated mouse vas deferens
# From the text: Bioorg. Med. Chem., 11: 675-678 (2003). The isolated tissues were suspended in organ baths containing balanced salt solutions in a physiological buffer, pH 7.5. […]
# [4] = target: μ-opioid receptor (Cavia porcellus, UniProt P97266); assay: guinea pig ileum (GPI) bioassay; type: cell-based; settings: for GPI Antagonist pA2 (nM), value in parentheses (Ke): versus endomorphin-2, antilog of pA2; for GPI Antagonist pA2: versus endomorphin-2 as agonist
# Description: The myenteric plexus longitudinal muscle preparations (2-3 cm segments) from the small intestine of male Hartley strain guinea pigs (GP1) measured μ-opioid receptor agonism and a single mouse vas deferens (MVD) was used to determine δ-opioid receptor agonism as described in Sasaki et al. Bioorg. […] The isolated tissues were suspended in organ baths containing balanced salt solutions in a physiological buffer, pH 7.5. Agonists were tested for the inhibition of electrically evoked contraction and expressed as IC50 (nM) obtained from the dose-response curves.
# [5] = Table 1, rat brain synaptosomes, footnote a: versus [3H]DAMGO, read-out: Ki(δ)
# [6] = Table 1, rat brain synaptosomes, footnote b: versus [3H]DPDPE, read-out: Ki(μ)
# [7] = Table 2, inhibition of electrically evoked contraction, read-out: MVD agonist IC50
# [8] = Table 2, versus deltorphin II, antilog of pA2
# [9] = Table 2, inhibition of electrically evoked contraction, read-out: GPI agonist IC50
# T3 sequence (P32300 whole entry): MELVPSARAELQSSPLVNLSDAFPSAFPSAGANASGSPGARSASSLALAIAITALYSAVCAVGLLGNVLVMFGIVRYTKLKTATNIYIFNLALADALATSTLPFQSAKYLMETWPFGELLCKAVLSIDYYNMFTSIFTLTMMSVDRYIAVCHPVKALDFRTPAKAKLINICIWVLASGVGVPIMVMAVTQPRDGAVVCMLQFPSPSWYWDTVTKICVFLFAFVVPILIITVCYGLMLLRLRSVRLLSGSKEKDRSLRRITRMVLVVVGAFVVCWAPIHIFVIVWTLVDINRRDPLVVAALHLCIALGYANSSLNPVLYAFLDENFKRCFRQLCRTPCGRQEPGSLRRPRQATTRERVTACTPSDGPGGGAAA
# T2 sequence (P33535 whole entry): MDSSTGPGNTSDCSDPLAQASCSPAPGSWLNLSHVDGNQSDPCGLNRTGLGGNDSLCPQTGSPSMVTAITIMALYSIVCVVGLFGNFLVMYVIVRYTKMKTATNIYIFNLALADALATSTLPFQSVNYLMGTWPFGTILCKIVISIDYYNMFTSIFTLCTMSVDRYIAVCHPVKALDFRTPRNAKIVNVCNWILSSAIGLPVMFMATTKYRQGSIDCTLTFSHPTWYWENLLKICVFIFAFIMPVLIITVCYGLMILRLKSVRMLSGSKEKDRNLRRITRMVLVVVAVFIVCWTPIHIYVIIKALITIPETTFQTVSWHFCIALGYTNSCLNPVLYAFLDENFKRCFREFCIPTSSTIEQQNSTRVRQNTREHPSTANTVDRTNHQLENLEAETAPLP
# T1 sequence (P33533 whole entry): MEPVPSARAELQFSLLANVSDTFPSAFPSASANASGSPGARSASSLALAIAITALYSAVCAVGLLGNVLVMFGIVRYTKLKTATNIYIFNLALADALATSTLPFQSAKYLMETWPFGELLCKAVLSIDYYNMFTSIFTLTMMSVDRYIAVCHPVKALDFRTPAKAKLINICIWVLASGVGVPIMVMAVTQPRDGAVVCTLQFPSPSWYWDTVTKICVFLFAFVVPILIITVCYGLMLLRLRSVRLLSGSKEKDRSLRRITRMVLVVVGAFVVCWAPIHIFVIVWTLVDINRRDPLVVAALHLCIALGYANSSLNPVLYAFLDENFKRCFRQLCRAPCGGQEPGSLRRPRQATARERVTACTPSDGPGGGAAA
# μ-opioid receptor (Cavia porcellus, UniProt P97266), sequence (P97266 whole entry, looked up): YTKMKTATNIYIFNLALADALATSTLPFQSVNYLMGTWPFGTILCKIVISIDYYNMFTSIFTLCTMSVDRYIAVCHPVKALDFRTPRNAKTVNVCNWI
molecule,measurement,setting,value
"3,6-Bis(Dmt-Tic-NH-butyl)-2(1H)-pyrazinone [Compound 11]",Ki,[1]; [5],0.323 ± 0.007 nM
same,Ki(μ)/Ki(δ),"[1]; Table 1, selectivity ratio",5
same,Ki,[2]; [6],1.74 ± 0.14 nM
same,IC50,[3]; [7],> 10000 nM
same,MVD Antagonist pA2,[3]; Table 2,11.06
same,"MVD Antagonist pA2 (nM), value in parentheses (Ke)",[3]; [8],0.0871 nM
same,IC50,[4]; [9],> 10000 nM
"3,6-Bis(Dmt-Tic-NH-propyl)˜2(1H)-pyrazinone [Compound 10]",Ki,[1]; [5],0.155 ± 0.016 nM
same,Ki(μ)/Ki(δ),"[1]; Table 1, selectivity ratio",20
same,Ki,[2]; [6],3.08 ± 0.17 nM
same,IC50,[3]; [7],> 10000 nM
same,MVD Antagonist pA2,[3]; Table 2,10.56
same,"MVD Antagonist pA2 (nM), value in parentheses (Ke)",[3]; [8],0.0275 nM
same,IC50,[4]; [9],7020 ± 2470 nM
3-(Dmt-Tic-NH-butyl)-6-(Dmt-Tic-NH-propyl)-2(1H)-pyrazinone [Compound 13],Ki,[1]; [5],0.092 ± 0.01 nM
same,Ki(μ)/Ki(δ),"[1]; Table 1, selectivity ratio",25
same,Ki,[2]; [6],2.28 ± 0.03 nM
same,IC50,[3]; [7],> 10000 nM
same,MVD Antagonist pA2,[3]; Table 2,10.47
same,"MVD Antagonist pA2 (nM), value in parentheses (Ke)",[3]; [8],0.0339 nM
same,IC50,[4]; [9],> 10000 nM
same,"GPI Antagonist pA2 (nM), value in parentheses (Ke)",[4]; Table 2,112 nM
same,GPI Antagonist pA2,[4]; Table 2,6.95
3-(Dmt-Tic-NH-ethyl)-6-(Dmt-Tic-NH-butyl)-2(1H)-pyrazinone [Compound 14],Ki,[1]; [5],0.107 ± 0.007 nM
same,Ki(μ)/Ki(δ),"[1]; Table 1, selectivity ratio",13
same,Ki,[2]; [6],1.37 ± 0.13 nM
same,IC50,[3]; [7],> 10000 nM
same,MVD Antagonist pA2,[3]; Table 2,10.99
same,"MVD Antagonist pA2 (nM), value in parentheses (Ke)",[3]; [8],0.0102 nM
same,IC50,[4]; [9],> 10000 nM
3-(Dmt-Tic-NH-propyl)-6-(Dmt-Tic-NH-butyl)-2(1H)-pyrazinone [Compound 12],Ki,[1]; [5],0.16 ± 0.025 nM
same,Ki(μ)/Ki(δ),"[1]; Table 1, selectivity ratio",10
same,Ki,[2]; [6],1.56 ± 0.11 nM
same,IC50,[3]; [7],> 10000 nM
same,MVD Antagonist pA2,[3]; Table 2,10.60
same,"MVD Antagonist pA2 (nM), value in parentheses (Ke)",[3]; [8],0.0251 nM
same,IC50,[4]; [9],> 10000 nM
Cc1cc(O)cc(C)c1CC(N)C(=O)N1Cc2ccccc2CC1C(=O)NCc1[nH]c(=O)c(CNC(=O)C2Cc3ccccc3CN2C(=O)C(N)Cc2c(C)cc(O)cc2C)nc1C (centres unmarked) (as salt: HCl) [Compound 8],melting point,,224 to 226 °C (dec.)
"Cc1cc(O)cc(C)c1CC(N)C(=O)N1Cc2ccccc2CC1C(=O)NCCCCNC(=O)C1Cc2ccccc2CN1C(=O)C(N)Cc1c(C)cc(O)cc1C (stereo not drawn) (as salt: HCl) [Compound 18, 1,4-Bis(Dmt-Tic-amino)butane]",melting point,,215 to 217 °C
"Cc1cc(O)cc(C)c1CC(N)C(=O)N1Cc2ccccc2CC1C(=O)NCCCCCCNC(=O)C1Cc2ccccc2CN1C(=O)C(N)Cc1c(C)cc(O)cc1C (stereo not drawn) (as salt: HCl) [Compound 19, 1,6-Bis(Dmt-Tic-amino)hexane]",melting point,,215 to 217 °C
"Cc1cc(O)cc(C)c1CC(N)C(=O)N1Cc2ccccc2CC1C(=O)NCCCCCCCCCCNC(=O)C1Cc2ccccc2CN1C(=O)C(N)Cc1c(C)cc(O)cc1C (centres unmarked) (as salt: HCl) [Compound 20, 1,10-Bis(Drat-Tic-amino)decane]",melting point,,205 to 207 °C
"Cc1cc(O)cc(C)c1CC(C(=O)N1Cc2ccccc2CC1C(=O)NCCCCCCNC(=O)C1Cc2ccccc2CN1C(=O)C(Cc1c(C)cc(O)cc1C)N(C)C)N(C)C (stereo not drawn) (as salt: HCl) [Compound 21, 1,6-Bis(N,N-Dimethyl-Dmt-Tic-NH)-hexane]",melting point,,195 to 197 °C
Cc1cc(O)cc(C)c1CC(N)C(=O)N1Cc2ccccc2CC1C(=O)NCc1[nH]c(=O)c(CNC(=O)C2Cc3ccccc3CN2C(=O)C(N)Cc2c(C)cc(O)cc2C)nc1C (centres unmarked) [Compound 8],Ki,[1],0.163 ± 0.018 nM
same,Ki(μ)/Ki(δ),[1],23
same,Ki,[2],3.76 ± 0.3 nM
same,"MVD Antagonist pA2 (nM), value in parentheses (Ke)",[3],11.22 (0.006) nM
same,IC50,[3]; read-out: MVD agonist IC50,> 10000 nM
same,IC50,[4]; read-out: GPI agonist IC50,> 10000 nM
"Cc1cc(O)cc(C)c1CC(N)C(=O)N1Cc2ccccc2CC1C(=O)NCCc1cnc(CCNC(=O)C2Cc3ccccc3CN2C(=O)C(N)Cc2c(C)cc(O)cc2C)c(=O)[nH]1 (stereo not drawn) [Compound 9, 3,6-Bis(Dmt-Tic-NH-ethyl)-2(1H)-pyrazinone]",Ki,[1]; [5],0.095 ± 0.0004 nM
same,Ki(μ)/Ki(δ),"[1]; Table 1, selectivity ratio",30
same,Ki,[2]; [6],2.83 ± 0.12 nM
same,IC50,[3]; [7],> 10000 nM
same,MVD Antagonist pA2,[3]; Table 2,10.73
same,"MVD Antagonist pA2 (nM), value in parentheses (Ke)",[3]; [8],0.0186 nM
same,IC50,[4]; [9],> 10000 nM
same,"GPI Antagonist pA2 (nM), value in parentheses (Ke)",[4]; Table 2,165 nM
same,GPI Antagonist pA2,[4]; Table 2,6.78
"Cc1cc(O)cc(C)c1CC(N)C(=O)N1Cc2ccccc2CC1C(=O)NCCCCNC(=O)C1Cc2ccccc2CN1C(=O)C(N)Cc1c(C)cc(O)cc1C (stereo not drawn) [Compound 18, 1,4-Bis(Dmt-Tic-amino)butane]",Ki,[1],0.124 ± 0.016 nM
same,Ki(μ)/Ki(δ),"[1]; Table 1, selectivity ratio",46
same,Ki,[2],5.72 ± 0.22 nM
same,IC50,[3],> 10000 nM
same,"MVD Antagonist pA2 (nM), value in parentheses (Ke)",[3]; [8],0.0309 nM
same,IC50,[4],> 10000 nM
same,"GPI Antagonist pA2 (nM), value in parentheses (Ke)",[4]; Table 2,102 nM
"Cc1cc(O)cc(C)c1CC(N)C(=O)N1Cc2ccccc2CC1C(=O)NCCCCCCNC(=O)C1Cc2ccccc2CN1C(=O)C(N)Cc1c(C)cc(O)cc1C (stereo not drawn) [Compound 19, 1,6-Bis(Dmt-Tic-amino)hexane]",Ki,[1],0.129 ± 0.03 nM
same,Ki,[2],1.79 ± 0.08 nM
same,IC50,[3],> 10000 nM
same,"MVD Antagonist pA2 (nM), value in parentheses (Ke)",[3]; [8],0.024 nM
"Cc1cc(O)cc(C)c1CC(N)C(=O)N1Cc2ccccc2CC1C(=O)NCCCCCCCCCCNC(=O)C1Cc2ccccc2CN1C(=O)C(N)Cc1c(C)cc(O)cc1C (centres unmarked) [Compound 20, 1,10-Bis(Drat-Tic-amino)decane]",Ki,[1],1.53 ± 0.16 nM
same,Ki(μ)/Ki(δ),"[1]; Table 1, selectivity ratio",3
same,Ki,[2],4.86 ± 0.41 nM
same,IC50,[3],> 10000 nM
same,"MVD Antagonist pA2 (nM), value in parentheses (Ke)",[3]; [8],0.0107 nM
same,IC50,[4],5420 ± 1840 nM
"Cc1cc(O)cc(C)c1CC(C(=O)N1Cc2ccccc2CC1C(=O)NCCCCCCNC(=O)C1Cc2ccccc2CN1C(=O)C(Cc1c(C)cc(O)cc1C)N(C)C)N(C)C (stereo not drawn) [Compound 21, 1,6-Bis(N,N-Dimethyl-Dmt-Tic-NH)-hexane]",Ki,[1],0.06 ± 0.01 nM
same,Ki(μ)/Ki(δ),"[1]; Table 1, selectivity ratio",37
same,Ki,[2],2.21 ± 0.08 nM
same,IC50,[3],> 10000 nM
same,"MVD Antagonist pA2 (nM), value in parentheses (Ke)",[3]; [8],0.0052 nM
same,IC50,[4],> 10000 nM
same,Kb,[4],4 nM
"C=CCN(CC=C)[C@@H](Cc1ccc(O)cc1)C(=O)N1CCC[C@H]1C(=O)N[C@@H](Cc1ccccc1)C(=O)N[C@@H](Cc1ccccc1)C(N)=O [Compound 28, [N,N-Diallyl-Tyr^1]EM-2]",Ki,[1],5760 ± 1220 nM
same,Ki,[2],1050 ± 175 nM
same,Ki(δ)/Ki(μ),[2]; Table 3,6
"C=CCN[C@@H](Cc1ccc(O)cc1)C(=O)N1CCC[C@H]1C(=O)N[C@@H](Cc1ccccc1)C(=O)N[C@@H](Cc1ccccc1)C(N)=O [Compound 29, [N-allyl]EM-2]",Ki,"[1]; Table 3, versus [3H]DPDPE, rat brain synaptosomes, read-out: Ki(δ)",7360 ± 259 nM
same,Ki(δ)/Ki(μ),[2]; Table 3,57
same,Ki,"[2]; Table 3, versus [3H]DAMGO, rat brain synaptosomes, read-out: Ki(μ)",130 ± 9.27 nM
"C=CCN(CC=C)[C@@H](Cc1c(C)cc(O)cc1C)C(=O)N1CCC[C@H]1C(=O)N[C@@H](Cc1ccccc1)C(=O)N[C@@H](Cc1ccccc1)C(N)=O [Compound 30, [N,N-(allyl)2Dmt^1]EM-2]",Ki(δ)/Ki(μ),[2]; Table 3,108
same,GPI pA2,"[4]; Table 4, μ antagonism",None
"C=CCN[C@@H](Cc1c(C)cc(O)cc1C)C(=O)NCCCc1[nH]c(=O)c(CCCNC(=O)[C@H](Cc2c(C)cc(O)cc2C)NCC=C)nc1C [Compound 32, Bis-[(N-allyl)Dmt-NH-propyl]pyrazinone]",Ki,[1],51.5 ± 4.1 nM
same,Ki,[2],12.4 ± 1.1 nM
same,Ki(δ)/Ki(μ),[2]; Table 3,4
same,Kb,[3],269 nM
same,IC50,"[3]; Table 4, agonism, read-out: MVD",> 10000 nM
same,Kb,[4],67.6 nM
same,IC50,"[4]; Table 4, agonism, read-out: GPI",> 10000 nM
same,pA2(μ)/pA2(δ),"[4]; Table 4, selectivity of antagonism",4
"Cc1cc(O)cc(C)c1C[C@H](N)C(=O)N1Cc2ccccc2C[C@H]1C(=O)O [H-Dmt-Tic-OH, reference compound] (H-[Dmt]-[Tic]-OH)","MVD agonist IC50, nM","[3]; Table 2, inhibition of electrically evoked contraction",none
